9 compounds from US7498326B2, “Compounds” (Glaxo Group Limited, priority 2002, dated 2009) can be followed below.

SMILES strings stand for the structures. Structures can show the parent of a compound that is named as a salt.

The first test can be described thus: MIC of test compounds against various organisms. The class given is cell-based. Conditions: versus all these organisms: S. epidermidis CL7, S. aureus WCUH29, S. pneumoniae 1629, S. pyogenes CN10, H. influenzae ATCC 49247, E. faecalis 2, M. catarrhalis Ravasio, E. coli 7623. How it is done: The MIC (μg/ml) of test compounds against various organisms was determined including: S. epidermidis CL7, S. aureus WCUH29, S. pneumoniae 1629, S. pyogenes CN10, H. influenzae ATCC 49247, E. faecalis 2, M. catarrhalis Ravasio, E. coli 7623. Examples 1, 5, 6, 7, 8, 11, 13 have an MIC≦2 μg/ml versus all these organisms.
Regarding `COc1cnc2cccc(C(O)CN3CCC(NCc4ccc5c(n4)NC(=O)CS5)CC3)c2n1` (racemic) [Example 5, 6-{[(1-{(2R/S)-2-hydroxy-2-[3-(methyloxy)-5-quinoxalinyl]ethyl}-4-piperidinyl)amino]methyl}-2H-pyrido[3,2-b][1,4]thiazin-3(4H)-one dihydrochloride], the MIC was not above 2 µg/mL.
The same measure, in the same setting: the result for `N#Cc1ccc2nccc(CCN3CC[C@H](NCc4ccc5c(n4)NC(=O)CO5)[C@H](O)C3)c2c1` (stereo in doubt) [Example 12, 4-[2-(3-hydroxy-4-{[(3-oxo-3,4-dihydro-2H-pyrido[3,2-b][1,4]oxazin-6-yl)methyl]amino}-1-piperidinyl)ethyl]-6-quinolinecarbonitrile (E1 isomer)] reads not above 16 µg/mL; that for `N#Cc1ccc2nccc(CCN3CCC(NCc4ccc5c(n4)NC(=O)CO5)CC3)c2c1` [Example 1, 4-2-{4-[(3-Oxo-3,4-dihydro-2H-pyrido[3,2-b][1,4]oxazin-6-ylmethyl)-amino]-piperidin-1-yl}-ethyl)-quinoline-6-carbonitrile dihydrochloride], not above 2 µg/mL; that for `O=C1CSc2ccc(CN[C@H]3CCN(CCc4ccnc5ccc6c(c45)OCCO6)C[C@H]3F)nc2N1` [Example 4, 6({(3R,4S)-1-[2-(2,3-Dihydro-[1,4]dioxino[2,3-f]quinolin-10-yl)-ethyl]-3-fluoro-piperidin-4-ylamino}-methyl)-4H-pyrido[3,2-b][1,4]thiazin-3-one], not above 16 µg/mL.
Same read-out and setting: under `COc1cnc2cccc(C(O)CN3CCC(NCc4cc5c(cn4)OCCO5)CC3)c2n1` (stereo not drawn) [Example 6, (1R/S)-2-{4-[(2,3-dihydro[1,4]dioxino[2,3-c]pyridin-7-ylmethyl)amino]1-1-piperidinyl}-1-[3-(methyloxy)-5-quinoxalinyl]ethanol dihydrochloride] stands not above 2 µg/mL.
On the same count and under the same terms, under `Clc1cnc2ccc3c(c2c1CCN1CCC(NCc2cc4c(cn2)OCCO4)CC1)OCCO3` [Example 7, {1-[2-(9-Chloro-2,3-dihydro-[1,4]dioxino[2,3-f]quinolin-10-yl)-ethyl]-piperidin-4-yl}-(2,3-dihydro-[1,4]dioxino[2,3-c]pyridin-7-ylmethyl)-amine dihydrochloride] stands not above 2 µg/mL; under `COc1ccc2cccc(C(O)CN3CCC(NCc4ccc5c(n4)NC(=O)CO5)CC3)c2n1` (stereo not drawn) [Example 8, 6-{[(1-{2-hydroxy-2-[2-(methyloxy)-8-quinolinyl]ethyl}4-piperidinyl)amino]methyl}-2H-pyrido[3,2-b][1,4]oxazin-3(4H)-one], not above 2 µg/mL.
As to `N#Cc1ccc2nccc(CCN3CC[C@H](NCc4ccc5c(n4)NC(=O)CS5)[C@H](O)C3)c2c1` [Example 11, 4-[2-(3-hydroxy-4-{([(3-oxo-3,4-dihydro-2H-pyrido[3,2-b][1,4]thiazin-6-yl)methyl]amino}-1-piperidinyl)ethyl]-6-quinolinecarbonitriledihydrochloride (E2 isomer)], the MIC was not above 2 µg/mL.

Staying with this test, now noted: versus some of these organisms (which of the eight listed strains is not stated).
For `O=C1CSc2ccc(CNC3CCN(CCc4ccnc5ccccc45)CC3)nc2N1` [Example 9, 6-[({1-[2-(4-quinolinyl)ethyl]-4-piperidinyl}amino)methyl]-2H-pyrido[3,2-b][1,4]thiazin-3(4H)-one dihydrochloride], the MIC was not above 16 µg/mL.
